Test results from PMC12910498 (ACS pharmacology & translational science, 2026).
Where two headings read alike, the source gives them in different places.

How the values were obtained:
[1] = Phase I metabolic stability in human liver microsomes (with NADPH); assay type: in vitro ADME; details: pH 7.4, presence of NADPH, mean ± SD, n = 3
Procedure: We evaluated the Phase I metabolic stability of compounds 2−7 and 14−19 using rat and human liver microsomes, as previously described.[45]
Phase I metabolic stability assays were conducted using rat and human liver microsomes as previously described[45],[70] with minor modifications. In brief, the reactions were carried out with 100 mM potassium phosphate buffer, pH 7.4, in the presence of NADPH regenerating system (1.3 mM NADPH, 3.3 mM glucose 6-phosphate, 3.3 mM MgCl2, 0.4 U/mL glucose-6-phosphate dehydrogenase, 50 μM sodium citrate). Negative controls without cofactors were assessed to determine the non-CYP-mediated metabolism. Compound disappearance was monitored over time using a liquid chromatography and tandem mass spectrometry (LC/MS) method. All reactions were performed in triplicate.
Chromatographic analysis was performed on a Dionex ultra high-performance LC system coupled with Q Exactive Focus orbitrap mass spectrometer (Thermo Fisher Scientific Inc., Waltham MA). Separation was achieved using Agilent Eclipse Plus column (100 × 2.1 mm^2 i.d.; maintained at 35 °C) packed with a 1.8 μm C18 stationary phase. […] The total run time for each analyte was 6.5 min. Pumps were operated at a flow rate of 0.3 mL/min. The mass spectrometer controlled by Xcalibur software 4.0.27.13 (Thermo Scientific) was operated with a HESI ion source in positive ionization mode. Compounds were identified in the full-scan mode (from m/z 50 to 750) by comparing t = 0 samples with t = 30 min and t = 60 min samples.

[2] = Pharmacokinetics study in rats (plasma and brain); assay type: in vivo, Sprague−Dawley rats; details: rat, 10 mg/kg IP
Procedure: Given their adequate in vitro stability profiles, we next evaluated the in vivo pharmacokinetic profiles of 14, 15, 17, and 18 in rats. Sprague−Dawley rats were dosed with 5 mg/kg (14, 15, 17) or 10 mg/kg (18), i.p., and plasma and brain levels of each drug were measured 0−6 h postdose.
All animal experiments were performed following the protocols evaluated and approved by the Animal Care and Use Committee at Johns Hopkins University (Ethics Approval Number: RA24M403). Pharmacokinetic studies in Sprague−Dawley (SD) rats were conducted according to protocols approved. SD rats obtained from Harlan were maintained on a 12 h light−dark cycle with ad libitum access to food and water. Test compound was administered via i.p. injection at a dose of 10 mg/kg (100% saline vehicle, 10 mL/kg volume). The rats were sacrificed at specified time points (0.25, 0.5 h, 1, 2, 4, and 6 h) post drug administration. For the collection of plasma and brain tissue, animals were euthanized with CO2, and blood samples were collected in heparinized microtubes by cardiac puncture. Brains were dissected and immediately flash-frozen (−80 °C). Blood samples were spun at 2000g for 15 min, and plasma was removed and stored at −80 °C until analysis (as described below).
Quantitation of triazole analogs 14, 15, 17, and 18 was performed using liquid chromatography with tandem mass spectrometry (LC/MS-MS) methods. Briefly, calibration standards were prepared using respective tissue (naïve plasma and brain) with additions of the test compounds. For quantifying the test compounds in the pharmacokinetic samples, plasma samples (20 μL) were processed using a single liquid extraction method by addition of 100 μL of acetonitrile containing internal standard (losartan: 0.5 μM), followed by vortex-mixing for 30 s and then centrifugation at 10,000g for 10 min at 4 °C. Brain tissues were diluted 1:5 w/v with acetonitrile containing losartan (0.5 μm) and homogenized, followed by vortex-mixing and centrifugation at 10,000g for 10 min at 4 °C. A 50 μL aliquot of the supernatant was diluted with 50 μL of water and transferred to 250 μL polypropylene autosampler vials sealed with Teflon caps. Two μL of the sample was injected into the LC/MS/MS system for analysis. Chromatographic analysis was performed using an Accela ultra high-performance system consisting of an analytical pump and an autosampler coupled with a TSQ Vantage mass spectrometer. […] The mobile phase consisted of 0.1% formic acid in acetonitrile and 0.1% formic acid in water with gradient elution, starting with 10% organic phase (from 0 to 1 min) linearly increasing to 95% (from 1 to 2 min), and re-equilibrating to 10% by 3 min. The total run time for each analyte was 3.5 min. Pumps were operated at a flow rate of 0.4 mL/min. […] Plasma concentrations (nmol/mL) as well as brain tissue concentrations (nmol/g) were determined and plots of mean plasma concentration versus time were constructed. Noncompartmental analysis modules in Phoenix WinNonlin version 7.0 (Certara USA, Inc., Princeton, NJ) were used to quantify exposures (AUC0−t) and half-life (t1/2).

human D2LR = human D2LR (Homo sapiens, UniProt P14416); assay: biochemical
human D2LR, sequence (P14416 whole entry): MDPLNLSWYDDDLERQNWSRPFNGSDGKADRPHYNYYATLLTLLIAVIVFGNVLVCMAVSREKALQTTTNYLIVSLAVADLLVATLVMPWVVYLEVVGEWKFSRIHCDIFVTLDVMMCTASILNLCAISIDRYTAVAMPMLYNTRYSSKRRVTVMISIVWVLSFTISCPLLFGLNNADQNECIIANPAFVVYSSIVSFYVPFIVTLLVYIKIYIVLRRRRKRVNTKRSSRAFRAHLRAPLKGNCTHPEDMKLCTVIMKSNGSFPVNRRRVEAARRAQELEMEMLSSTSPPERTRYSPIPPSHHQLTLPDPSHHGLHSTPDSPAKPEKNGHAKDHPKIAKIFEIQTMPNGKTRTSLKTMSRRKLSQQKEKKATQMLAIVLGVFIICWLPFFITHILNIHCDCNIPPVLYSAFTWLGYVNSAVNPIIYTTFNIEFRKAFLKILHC

human D3R = human D3R (Homo sapiens, UniProt P35462); assay: biochemical
human D3R, sequence (P35462 whole entry, canonical isoform): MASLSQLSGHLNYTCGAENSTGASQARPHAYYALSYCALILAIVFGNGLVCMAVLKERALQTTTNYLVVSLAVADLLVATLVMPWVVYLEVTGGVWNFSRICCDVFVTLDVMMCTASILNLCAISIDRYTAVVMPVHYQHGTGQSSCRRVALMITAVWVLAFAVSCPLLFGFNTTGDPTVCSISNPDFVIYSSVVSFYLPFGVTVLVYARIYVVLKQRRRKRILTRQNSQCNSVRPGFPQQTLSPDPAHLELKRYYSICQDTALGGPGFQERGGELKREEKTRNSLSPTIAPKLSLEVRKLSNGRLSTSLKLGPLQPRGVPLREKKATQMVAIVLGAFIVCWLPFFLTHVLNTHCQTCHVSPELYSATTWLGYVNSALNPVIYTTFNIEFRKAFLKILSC

human D2R long isoform = human D2R long isoform (Homo sapiens, UniProt P14416); assay: DiscoverX PathHunter β-arrestin recruitment assay, D2R
human D2R long isoform, sequence (P14416 whole entry, canonical isoform): as the sequence (P14416 whole entry) above

human D4R [3] = target: T1, human D4R (Homo sapiens, UniProt P21917); assay: [3H]N-methylspiperone radioligand competition binding, hD4R membranes
T1 sequence (P21917 1-419): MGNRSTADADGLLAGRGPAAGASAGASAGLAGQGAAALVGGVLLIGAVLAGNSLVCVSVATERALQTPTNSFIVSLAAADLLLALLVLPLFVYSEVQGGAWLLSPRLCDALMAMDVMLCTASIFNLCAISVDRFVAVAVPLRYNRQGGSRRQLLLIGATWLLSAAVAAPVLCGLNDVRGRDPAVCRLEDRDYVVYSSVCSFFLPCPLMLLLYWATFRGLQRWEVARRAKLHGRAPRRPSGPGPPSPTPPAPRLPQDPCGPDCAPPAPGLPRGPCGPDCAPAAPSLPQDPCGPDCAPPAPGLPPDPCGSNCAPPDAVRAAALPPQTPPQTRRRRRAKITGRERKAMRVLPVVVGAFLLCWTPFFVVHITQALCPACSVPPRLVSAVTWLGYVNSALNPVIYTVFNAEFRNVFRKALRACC

human D4R [4] = target: T1, human D4R

Cc1cccc(-n2cc(CN3CCN(c4cccc5ccccc45)CC3)nn2)c1 [Compound 18, 1-(Naphthalen-1-yl)-4-((1-(m-tolyl)-1H-1,2,3-triazol-4-yl)methyl)piperazine]
half-life [1]: 1.02 ± 0.129 h
Kp ([2]; Sprague-Dawley, brain and plasma, ip, 10 mg/kg, AUC brain/plasma, read-out: brain: Plasma ratio): > 2.6
half-life ([2]; Sprague-Dawley, brain, ip, 10 mg/kg, brain, read-out: half-life (h) brain (converted)): 2.46 h
half-life ([2]; Sprague-Dawley, plasma, ip, 10 mg/kg, plasma, read-out: half-life (h) plasma (converted)): 2.54 h
half-life ([2]; Sprague-Dawley, plasma, ip, 10 mg/kg, tissue not specified, read-out: half-life (converted)): ~2.5 h
Tmax ([2]; Sprague-Dawley, brain, read-out: Tmax (h) brain): 0.5 h
AUC ([2]; Sprague-Dawley, plasma): 1.36 ± 0.29 µM·h
Cmax ([2]; Sprague-Dawley, plasma): 700 ± 90 nM
Tmax ([2]; Sprague-Dawley, plasma, read-out: Tmax (h) plasma): 0.5 h
brain: Plasma ratio ([2]; AUC brain/plasma, 10 mg/kg): 2.63
AUC brain ([2]; brain): 3.57 ± 0.77 nmol·h/g
Cmax brain ([2]; brain): 2.08 ± 0.20 nmol/g
peak in vivo brain concentrations expected ([2]; from brain Cmax): greater than 2.0 μM
Ki (human D2LR): 6.54 ± 5.37 µM
Ki (human D3R): 10.8 µM
IC50 (human D2R long isoform): 4.7 ± 1.1 µM
D2R Ant (%) (human D2R long isoform; antagonist mode, EC80 dopamine (1 μM), normalized to spiperone): 87.8 ± 26.7%
Ki (human D4R [3]): 0.00433 ± 0.00102 µM
Selectivity D2R/D4R (human D4R [3]; ratio of Ki values): 1510
Selectivity D3R/D4R (human D4R [3]; ratio of Ki values): 2504
EC50 (human D4R [4]): 2.14 ± 1.07 µM
IC50 (human D4R [4]): 0.904 ± 0.102 µM
D4R Ant. (%) (human D4R [4]; cAMP, antagonist mode, 10 μM forskolin and 10 nM dopamine, normalized to spiperone): 72 ± 5%
Emax (human D4R [4]; read-out: D4R Emax (%)): 24 ± 7%
